Measurements: patent US10844015B2, “Pyridine dicarboxamide derivatives as bromodomain inhibitors” (GlaxoSmithKline Intellectual Property (No. 2) Limited, priority 2016, dated 2020)

Experiments:
BRD4 BD2 = target: T1, BRD4 BD2 (Homo sapiens, UniProt O60885, Y97A); assay: BRD4 BD2 TR-FRET competition assay; type: binding; settings: single mutant tandem BRD4 protein; for IC50: read-out: pIC50 in the BRD4 BD2 assay (converted)
T1 construct: BRD4 (1-477) (Y97A) and (Y390A); made in house; host or cells: E. coli (pET15b vector)
Method: Time Resolved Fluorescence Resonance Energy Transfer (TR-FRET) Assay
Bromodomain binding was assessed utilising a time resolved fluorescent resonance energy transfer (TR-FRET) competition assay. To enable this approach a known, high affinity, pan-BET interacting small molecule was labelled with Alexa Fluor® 647, which is a far-red-fluorescent dye (Reference Compound X). Reference Compound X acts as a reporter of bromodomain binding and is the acceptor fluorophore component of the TR-FRET pair. Europium chelate, conjugated to an anti-6*His antibody, was utilised as the donor fluorophore in the TR-FRET pair. […] A TR-FRET signal is generated when the donor and acceptor fluorophores are in close proximity, between 20-80 Å, which is enabled in this assay by binding of Reference Compound X to the bromodomain protein.
In order to generate a TR-FRET signal, donor fluorophore is excited by a laser at A337 nm, which subsequently leads to emission at A618 nm. If the acceptor fluorophore is in close proximity then energy transfer can occur, which leads to emission of Alexa Fluor® 647 at A665 nm. In the presence of competitor compound, Reference Compound X can be displaced from binding to the bromodomain. If displacement occurs, the acceptor fluorophore is no longer in proximity to the donor fluorophore, which prevents fluorescent energy transfer and, subsequently, a loss of Alexa Fluor® 647 emission at λ665 nm.
(§1) The competition of the compounds of formula (I) with Reference Compound X for binding to the BET family (BRD2, BRD3, BRD4 and BRDT) was assessed using protein truncates spanning both bromodomain 1 (BD1) and bromodomain 2 (BD2). In order to monitor differential binding to either BD1 or BD2, single residue mutations of key tyrosines to alanine were made in the acetyl lysine binding pockets. To validate this approach, a double residue mutant tandem domain protein was produced for each of the BET family members. Utilising a Fluorescence Polarisation approach, binding affinities for each of the single and double mutants for Reference Compound X were determined.
Final purification was completed by Superdex 200 prep grade size exclusion column. Purified protein was stored at −80° C. in 20 mM HEPES pH 7.5 and 100 mM NaCl.
Protocol for Bromodomain BRD2, 3, 4 and T, BD1+BD2 Mutant TR-FRET Competition Assays:
(§2) All assay components were dissolved in an assay buffer composing of 50 mM HEPES pH7.4, 50 mM NaCl, 5% Glycerol, 1 mM DTT and 1 mM CHAPS. […] The solution containing bromodomain and Reference Compound X was added to dose response dilutions of test compound or DMSO vehicle (a maximum of 0.5% DMSO is used in this assay) in Greiner 384 well black low volume microtitre plates and subsequently incubated for 30 minutes at room temperature. An equal volume of 3 nM of anti-6*His Europium chelate was added to all wells, followed by a further 30 minute incubation at room temperature. TR-FRET was detected using a Perkin Elmer Multimode plate reader, by exciting the donor fluorophore at λ337 nm and subsequently, after a delay of 50 μsecs, measuring emission of the donor and acceptor fluorophores at λ615 nm and λ665 nm, respectively. In order to control these assays, 16 replicates each of uninhibited (DMSO vehicle) and inhibited (10*IC50 concentrations of Example 11 of WO 2011/054846A1) TR-FRET assays were included on every microtitre plate.
cA four parameter curve fit of the following form was then applied: y=a+((b−a)/(1+(10^x/10^c)^d) • Where ‘a’ is the minimum, ‘b’ is the Hill slope, ‘c’ is the pIC50 and ‘d’ is the maximum.
(§3) All compounds (Examples) were each tested in the BRD4 BD1 and the BRD4 BD2 TR-FRET assays essentially as described above. Those of skill in the art will recognise that in vitro binding assays and cell-based assays for functional activity are subject to experimental variability. Accordingly, it is to be understood that the pIC50 values given below are exemplary only. pIC50 values are expressed as log10 units.

BRD4 BD2 over BRD4 BD1 = assay: Calculation of selectivity for BRD4 BD2 over BRD4 BD1 from the TR-FRET assays; type: binding, Human; settings: for fold selective for BRD4 BD2 over BRD4 BD1: stated from the log unit selectivity; for selectivity for BRD4 BD2 over BRD4 BD1: BRD4 BD2 pIC50 − BRD4 BD1 pIC50, in at least one of the TR-FRET assays
Method: as §1, §2, §3
Calculation of Selectivity for BRD4 BD2 Over BRD4 BD1
Selectivity for BRD4 BD2 over BRD4 BD1 was calculated as follows: Selectivity=BRD4BD2pIC50−BRD4BD1pIC50

[1] = tested on: BET family (BRD2, BRD3, BRD4 and BRDT) tandem bromodomain proteins; assay: Fluorescence Polarisation binding affinities of single and double mutant tandem BET proteins for Reference Compound X; parameters: species or system Human
Method: as §1, with “determined. […] The affinities of the single mutated bromdomain tandem proteins for Reference Compound X were equi-potent with the corresponding non-mutated BET protein. […] In the TR-FRET competition assay, Reference Compound X is used at a concentration that is equivalent to the Kd for the non-mutated bromodomain, which ensures that no binding at the mutated bromodomain is detected.” for “determined.”
Recombinant Human Bromodomains [(BRD2 (1-473) (Y113A) and (Y386A), BRD3 (1-435) (Y73A) and (Y348A) BRD4 (1-477) (Y97A) and (Y390A) and BRDT (1-397) (Y66A) and (Y309A)] were expressed in E. coli cells (in pET15b vector for BRD2/3/4 and in pET28a vector for BRDT) with a 6-His tag at the N-terminal. The His-tagged Bromodomain pellet was resuspended in 50 mM HEPES (pH7.5), 300 mM NaCl, 10 mM imidazole & 1 μL/mL protease inhibitor cocktail and extracted from the E. coli cells using sonication and purified using a nickel sepharose high performance column, the proteins were washed and then eluted with a linear gradient of 0-500 mM imidazole with buffer 50 mM HEPES (pH7.5), 150 mM NaCl, 500 mM imidazole, over 20 column volumes. Final purification was completed by Superdex 200 prep grade size exclusion column. Purified protein was stored at −80° C. in 20 mM HEPES pH 7.5 and 100 mM NaCl. Protein identity was confirmed by peptide mass fingerprinting and predicted molecular weight confirmed by mass spectrometry.

Structure (SMILES) | fold selective for BRD4 BD2 over BRD4 BD1 (BRD4 BD2 over BRD4 BD1) | IC50 (BRD4 BD2) [nM] | selectivity for BRD4 BD2 over BRD4 BD1 (BRD4 BD2 over BRD4 BD1) [log unit] | other results
CNC(=O)c1cc(C(=O)N[C@H]2C[C@@H]2C)cc(C(OC)c2ccnc3[nH]ccc23)n1 (relative stereo) [Example 106, 6-((R*-Methoxy(1H-pyrrolo[2,3-b]pyridin-4-yl)methyl)-N^2 methyl-N^4-((1S,2S)-2-methylcyclopropyl)pyridine-2,4-dicarboxamide] | at least 1000 fold |  |  | pIC50 in the BRD4 BD2 assay (BRD4 BD2): 7.6 log10 units
CNC(=O)c1cc(C(=O)NC2CC2)cc([C@@H](O)c2ccccc2C)n1 (single isomer, unassigned) [Example 116, (S*)-N^4-cyclopropyl-6-(hydroxy(o-tolyl)methyl)-N^2-methylpyridine-2,4-dicarboxamide] |  | 1000 to 10000 |  | 
CNC(=O)c1cc(C(=O)N[C@H]2C[C@@H]2C)cc(Cc2cncc3[nH]ccc23)n1 [Example 46, 6-((1H-Pyrrolo[2,3-c]pyridin-4-yl)methyl)-N^2-methyl-N^4-((1S,2S)-2-methylcyclopropyl)pyridine-2,4-dicarboxamide] | at least 100 fold | 79.4 | 2.8 | 
CNC(=O)c1cc(C(=O)NC2CC2C)cc(C(C)c2cncc3[nH]ccc23)n1 [Example 49, 6-((S*-1-(1H-Pyrrolo[2,3-c]pyridin-4-yl)ethyl)-N^2-methyl-N^4 ((1S,2S)-2-methylcyclopropyl)pyridine-2,4-dicarboxamide] | at least 100 fold | 12.6 | 2.8 | 
CNC(=O)c1cc(C(=O)N[C@H]2C[C@@H]2C)cc(Cn2ccccc2=O)n1 [Example 54, N^2-Methyl-N^4-((1S,2S)-2-methylcyclopropyl)-6-((2-oxopyridin-1(2H)-yl)methyl)pyridine-2,4-dicarboxamide] |  | 1000 to 10000 |  | 
CNC(=O)c1cc(C(=O)N[C@H]2C[C@@H]2C)cc(Cc2ccnc3[nH]ccc23)n1 [Example 80, 6-((1H-Pyrrolo[2,3-b]pyridin-4-yl)methyl)-N^2-methyl-N^4-((1S,2S)-2-methylcyclopropyl)pyridine-2,4-dicarboxamide] | at least 1000 fold | 39.8 |  | 
CNC(=O)c1cc(C(=O)N[C@H]2C[C@@H]2C)cc(Cc2cccc3c2CCN3)n1 [Example 83, 6-(indolin-4-ylmethyl)-N^2-methyl-N^4-((1S,2S)-2-methylcyclopropyl)pyridine-2,4-dicarboxamide] | at least 100 fold | 31.6 | 2.9 | 
COc1ccc2c(c1)C(c1ccc(Cl)cc1)=N[C@@H](CC(=O)NCCCCCNC(=O)CCCCCC1(C)/C(=C/C=C/C=C/C3=[N+](CCCCS(=O)(=O)O)c4ccc(S(=O)(=O)O)cc4C3(C)C)N(CCCCS(=O)(=O)[O-])c3ccc(S(=O)(=O)O)cc31)c1nnc(C)n1-2 (stereo partly drawn) [Reference Compound X] |  |  |  | reduction in Kd (affinity) of double mutant tandem proteins in comparison to wild type tandem BET proteins ([1]; double residue (Tyr to Ala) mutant tandem domain proteins): > 1000 fold; reduction of Kd of the interaction between the mutated bromodomain and Reference Compound X ([1]; single mutation of Tyrosine to Alanine): > 1000 fold; affinity of single mutated bromodomain tandem proteins versus corresponding non-mutated BET protein ([1]; single residue (Tyr to Ala) mutants): equi-potent
